{
  "source": "patent US10919888B2",
  "about": "“Benzyl amine-containing heterocyclic compounds and compositions useful against mycobacterial infection” (priority 2015, dated 2021)",
  "key": {"mice": {"test_system": "mice", "details": "mouse"}, "Mycobacterium avium 101": {"test_system": "Mycobacterium avium 101", "test": "In vivo efficacy in mice infected with Mycobacterium avium 101 (FIG. 2)", "details": "dosed orally with 25 mg/kg and 100 mg/kg", "description": "Panel A is the log 10 colony forming units (CFU) drop in bacteria in the lungs when treated with ND-10885 (at 25 and 100 mg/kg), rifampicin (RMP, 20 mg/kg) and a combination of ND-10885 (100 mg/kg) and rifampicin (20 mg/kg). Panel B is the log 10 colony forming units (CFU) drop in bacteria in the spleen when treated with ND-10885 (at 25 and 100 mg/kg), rifampicin (RMP, 20 mg/kg) and a combination of ND-10885 (100 mg/kg) and rifampicin (20 mg/kg). Panel C is the log 10 colony forming units (CFU) drop in bacteria in the liver when treated with ND-10885 (at 25 and 100 mg/kg), rifampicin (RMP, 20 mg/kg) and a combination of ND-10885 (100 mg/kg) and rifampicin (20 mg/kg)."}, "in vivo": {"test": "in vivo", "details": "mouse, MTD (maximum tolerated dose)"}, "M. avium": {"test_system": "M. avium", "test": "Murine MAC infection model, two week infection in Balb/c mice", "type": "in vivo, Mycobacterium avium", "details": "two week infection experiment, control", "text": "AND CHEMOTHERAPY, 1995, 39(8), 1647-1654 for review of MAC infection model and Antimicrob Agents Chemother. 1992, 36(11):2413-7 for a typical experiment (done with clarithromycin)."}},
  "data": [
    {"smiles": "Cc1ccn2c(C(=O)NCc3ccc(S(F)(F)(F)(F)F)cc3)c(C)nc2c1", "values": [
      {"measurement": "melting point", "value": "186 to 187", "unit": "°C"}
    ]},
    {"smiles": "CCc1nc2ccc(Cl)cn2c1C(=O)NCc1ccc(S(F)(F)(F)(F)F)cc1", "values": [
      {"measurement": "melting point", "value": "191 to 192", "unit": "°C"}
    ]},
    {"smiles": "Cc1ccc2nc(C)c(C(=O)NCc3ccc(S(F)(F)(F)(F)F)cc3)n2c1", "values": [
      {"measurement": "melting point", "value": "176 to 177", "unit": "°C"}
    ]},
    {"smiles": "Cc1ccn2c(C(=O)NCc3ccc(N4CCOCC4)cc3)c(C)nc2c1", "note": "[ND-10823]", "values": [
      {"measurement": "dose limiting toxicity / in vivo toxicity", "setting": "mice", "value": 100, "unit": "mg/kg"}
    ]},
    {"smiles": "Cc1ccn2c(C(=O)NCc3ccc4c(c3)CCO4)c(C)nc2c1", "note": "[ND-10885]", "values": [
      {"measurement": "in vivo efficacy (log 10 CFU drop in lungs, spleen, liver)", "setting": "Mycobacterium avium 101", "value": "validate the in vivo efficacy"}
    ]},
    {"smiles": "Cc1ccn2c(C(=O)NCc3ccc(N4CCCN(c5ccc(C(F)(F)F)cc5)CC4)c(F)c3)c(C)nc2c1", "note": "[ND-11598]", "values": [
      {"measurement": "MTD", "setting": "in vivo", "value": "≥ 250", "unit": "mg/kg"}
    ]},
    {"smiles": "CCc1nc2ccc(Cl)cn2c1C(=O)NCc1ccc(N2CCSCC2)c(F)c1", "note": "[ND-11622]", "values": [
      {"measurement": "MTD", "setting": "in vivo", "value": "≥ 250", "unit": "mg/kg"}
    ]},
    {"smiles": "CO[C@H]1/C=C/O[C@@]2(C)Oc3c(C)c(O)c4c(O)c(c(/C=N/N5CCN(C)CC5)c(O)c4c3C2=O)NC(=O)/C(C)=C\\C=C\\[C@H](C)[C@H](O)[C@@H](C)[C@@H](O)[C@@H](C)[C@H](OC(C)=O)[C@@H]1C", "note": "[rifampicin]", "values": [
      {"measurement": "log 10 CFU drop in the amount of M. avium in the lungs", "setting": "M. avium", "value": 1.8, "unit": "log 10 CFU"}
    ]}
  ]
}
